Results from publication PMC11218202, “Targeting of 3D oral cancer spheroids by αVβ6 integrin using near-infrared peptide-conjugated IRDye 680” (Cancer Cell International, 2024).

What was measured:
HSC-3 cells [1] = settings: 24 h, 0.1–4 µM, serum-free medium, highest concentration 4 µM, p > 0.05
Protocol: (§1) Cells were seeded into 96-well plates (100 µL, 4.10^4 cells/mL) for 5 days, then culture medium was replaced with 0.1–4 µM of IRDye-conjugates diluted in serum-free medium for 24 h at 37 °C. Afterwards, cells were washed, fixed with 70% ethanol for 10 min and further incubated with 0.2% crystal violet in 20% ethanol for 15 min. After several washes, crystal violet was solubilized using 0.1% acetic acid and 50% ethanol and optical density was recorded at 540 nm with Multiskan microplate readers (Ascent, Labsystems). Cell viability was calculated by normalizing to that of the control condition.

MRC-5 cells = settings: 24 h, 0.1–4 µM, serum-free medium, highest concentration 4 µM, p > 0.05
Protocol: as §1

HSC-3 cells [2] = experiment: Internalization studies in HSC-3 monolayers (4 °C vs 37 °C, endocytosis inhibitors), flow cytometry; assay type: cell-based, human; settings: for reduction of cellular uptake of IRDye-A20 by endocytosis inhibitor: HSC-3 cells pre-incubated 30 min with Genistein 400 µM, Chlorpromazin or EIPA 100 µM, then IRDye-A20 500 nM for 3 h, n = 3–4
H10 HSC-3 spheroids = experiment: Accumulation in homotypic H10 (HSC-3) spheroids, flow cytometry; assay type: cell-based, human

CGGGSGGGSLRDQTGLKNPVQLARVAV [IRDye-Scr, IRDye 680 conjugated to a scramble version of the A20 peptide, control for non-specific delivery]
loss of viability (crystal violet) (HSC-3 cells [1]): Loss of viability was not detected
loss of viability (crystal violet) (MRC-5 cells): Loss of viability was not detected
inhibition of internalization at 4 °C versus 37 °C (HSC-3 cells [2]; HSC-3 monolayers, 3 h, 1-500 nM, n = 4): significant inhibition of internalization at 4 °C was observed only at the highest concentrations
MFI, fold less compared to IRDye-A20 (H10 HSC-3 spheroids; 100 nM, 24 h): 20 fold
percentage of labeled cells (H10 HSC-3 spheroids; 3 h, maximum over 1-250 nM, n = 4–5): 3%
percentage of labeled cells (H10 HSC-3 spheroids; 6 h, maximum over 1-250 nM, n = 4–5): 7%
percentage of labeled cells (H10 HSC-3 spheroids; 24 h, 50 nM): ≤ 3%
percentage of labeled cells (H10 HSC-3 spheroids; 24 h, 100 nM): 11%
percentage of labeled cells (H10 HSC-3 spheroids; 24 h, 250 nM): 45%

CCN(c1nc(N)c(C(=O)N=C(N)N)nc1Cl)C(C)C [EIPA, (5-(N-Ethyl-N-isopropyl)-Amiloride)]
reduction of cellular uptake of IRDye-A20 by endocytosis inhibitor (HSC-3 cells [2]): not affected

CN(C)CCCN1c2ccccc2Sc2ccc(Cl)cc21 [chlorpromazine, Chlorpromazin]
reduction of cellular uptake of IRDye-A20 by endocytosis inhibitor (HSC-3 cells [2]): not affected

O=c1c(-c2ccc(O)cc2)coc2cc(O)cc(O)c12 [genistein, Genistein]
reduction of cellular uptake of IRDye-A20 by endocytosis inhibitor (HSC-3 cells [2]): 30%
